# Experimental data taken from ChEMBL document CHEMBL4480444, “Structural requirement of tunicamycin V for MraY inhibition” (Bioorg Med Chem, 2019).
# Target: T1, Phospho-N-acetylmuramoyl-pentapeptide-transferase (Staphylococcus aureus, UniProt P0C1R8)
# T1 sequence (P0C1R8 whole entry): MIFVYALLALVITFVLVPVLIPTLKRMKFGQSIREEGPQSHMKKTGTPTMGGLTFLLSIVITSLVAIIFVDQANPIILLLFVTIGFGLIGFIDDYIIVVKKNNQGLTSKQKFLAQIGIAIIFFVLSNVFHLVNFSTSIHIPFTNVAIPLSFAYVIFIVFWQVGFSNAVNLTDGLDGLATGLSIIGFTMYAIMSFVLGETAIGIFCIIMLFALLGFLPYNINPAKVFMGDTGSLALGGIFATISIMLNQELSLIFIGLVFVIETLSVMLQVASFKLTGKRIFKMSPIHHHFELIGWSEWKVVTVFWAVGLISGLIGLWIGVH
# Experiment: Inhibition of Staphylococcus aureus MraY assessed as reduction in dansylated lipid I formation using UDP-MurNAc-dansylpentapeptide incubated for 3 hrs by fluorescence assay
row,Structure (SMILES),IC50 [µM]
1,CC(=O)N[C@H]1[C@H](O[C@H]2O[C@H](CO)[C@@H](O)[C@H](O)[C@H]2NC(C)=O)O[C@H](C[C@@H](O)[C@H]2O[C@@H](n3ccc(=O)[nH]c3=O)[C@H](O)[C@@H]2O)[C@H](O)[C@@H]1O,36
2,CC(=O)N[C@H]1[C@@H](O[C@@H]2O[C@H](C[C@@H](O)[C@H]3O[C@@H](n4ccc(=O)[nH]c4=O)[C@H](O)[C@@H]3O)[C@H](O)[C@H](O)[C@H]2NC(=O)/C=C/CCCCCCCCCC(C)C)O[C@H](CO)[C@@H](O)[C@@H]1O (stereo in doubt; form 1),0.25
3,CC(=O)N[C@H]1[C@@H](O[C@@H]2O[C@H](C[C@@H](O)[C@H]3O[C@@H](n4ccc(=O)[nH]c4=O)[C@H](O)[C@@H]3O)[C@H](O)[C@H](O)[C@H]2NC(=O)/C=C/CCCCCCCCCC(C)C)O[C@H](CO)[C@@H](O)[C@@H]1O (stereo in doubt; form 2),0.35

# Further lines, results first:
row,IC50 [µM],Structure (SMILES)
1,36,CC(C)CCCCCCCCC/C=C/C(=O)N[C@H]1C(O)O[C@H](C[C@@H](O)[C@H]2O[C@@H](n3ccc(=O)[nH]c3=O)[C@H](O)[C@@H]2O)[C@H](O)[C@@H]1O (stereo not given in full)
2,> 100,CC(=O)N[C@H]1[C@@H](O[C@@H]2O[C@H](CO)[C@H](O)[C@H](O)[C@H]2NC(=O)/C=C/CCCCCCCCCC(C)C)O[C@H](CO)[C@@H](O)[C@@H]1O
